Laboratory results published in patent US8338565B2, “Macrocyclic compounds for inhibition of tumor necrosis factor alpha” (Ensemble Therapeutics Corporation, priority 2008, dated 2012).
Where two headings read alike, the source gives them in different places. Numbered stars: 1 amine (or outer) side, 2 acyl side, 3 side chain; on linkers, the order of the positions; unused ones are H or OH. Bridge positions count the residues as written; N and C are the ends. Square brackets hold non-standard residues; d marks the D form. Peptide text beside a SMILES is read from it. Phe(4-(4-pyridyl)) = N[C@@H](Cc1ccc(-c2ccncc2)cc1)C(=O)O; Phe(4-NH2) = Nc1ccc(C[C@H](N)C(=O)O)cc1; d(hPhe) = N[C@H](CCc1ccccc1)C(=O)O; Suc = O=C(CCC(=O)[*:2])[*:1]

What was measured:
[1] = system: rat paw edema model; assay: Rat paw edema model (carrageenan), anti-inflammatory activity; type: in vivo, Sprague-Dawley (SD) rats; settings: 1 mg/kg IV
Procedure: Compounds 3, 4, 10 and 202 were tested in a rat paw edema model to determine anti-inflammatory activity. Seven groups (one for Vehicle A [15 mL PEG400, 3 mL Graves Grain alcohol (190 proof), 1.8 mL dimethylacetamide and 10.2 mL deionized water] alone as a negative control, one for Vehicle B [0.1M NaHCO3] alone as a negative control, one for each of the four test compounds dissolved in Vehicle A, and one for indomethacin dissolved in Vehicle B as a positive control), each group containing six Sprague-Dawley (SD) rats (180-200 g) randomized by weight. Initial paw volumes were measured by placing the right hind limb of the rat up to the top of the hock in a beaker of water sitting on a scale that had been tared to zero and recording the readout.
Rats were pre-treated with either i) one of the test compounds, or ii) a positive or negative control. Vehicle A alone and test compound dissolved in Vehicle A (Compound 3-1.0 mg/kg; Compound 4-0.4 mg/kg; Compound 10-0.5 mg/kg; Compound 202-0.3 mg/kg) were administered by intravenous injection. Vehicle B alone and indomethacin (5 mg/kg in 0.1M NaHCO3) was administered by intraperitoneal injection. Thirty minutes after this pretreatment, rats were anesthetized and injected with 0.1 mL of carrageenan (10 mg/mL in water) in the subplantar region of the right hind foot using a ½ inch 26 gauge needle attached to a 1 cc syringe.
At 2, 4 and 6 hours post-carrageenan injection, the right hind foot of each rat was measured for paw volume as described above.
We next investigated the effect of varying intravenous doses of Compound 202 (0.05, 0.10, 0.30, and 1.00 mg/kg) in the same model using the same protocol (6 rats per group). […] We also investigated the affect of oral dosing (10 mg/kg) of Compound 202 in the same model. For oral dosing, a 2.5 mg/mL suspension of Compound 202 was prepared in Vehicle A. Rats were orally administered 4 mL/kg of that suspension.

[2] = system: TNF-α (degradation of IkB in HeLa cells or A431 cells); assay: Human cell-based assay: inhibition of TNF-α induced degradation of IkB; settings: for inhibition at 5 µM: read-out: Inhibition at Various Compound Concentrations, 5 μM; for inhibition at 10 µM: read-out: Inhibition at Various Compound Concentrations, 10 μM
[3] = target: T1, TNFα / TNFα receptor (TNFα R1/Fc) (Homo sapiens, UniProt P01375); assay: Inhibition of binding of TNFα to the TNFα receptor (plate ELISA competition); settings: Table 2
T1 construct: purchased R&D Systems
Procedure, shortened: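 Compound dilutions were preincubated 30 min at RT with 8.33 nM TNFα R1/Fc in PBST with 2% DMSO, then added to wells coated with 15 nM TNFα for 30 min. Bound receptor was detected with HRP anti-human Fc and TMB, read as A450.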

[4] = Activity (IC50, inhibition of TNFα binding to TNFα R1/Fc)
[5] = 5 μM compound, HeLa or A431 cells
[6] = 10 μM compound, HeLa or A431 cells
[7] = read-out: Activity (IC50, inhibition of TNFα binding to TNFα R1/Fc)

T1 sequence (P01375 77-233 limits assumed, species assumed): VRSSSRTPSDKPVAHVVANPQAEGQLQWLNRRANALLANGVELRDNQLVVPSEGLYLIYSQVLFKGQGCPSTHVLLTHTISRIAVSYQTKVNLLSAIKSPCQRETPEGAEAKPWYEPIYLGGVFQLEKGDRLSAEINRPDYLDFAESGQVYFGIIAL

Row | SMILES | inhibition at 5 µM [2] | inhibition at 10 µM [2] | inhibition at 5 µM [2, 5] | inhibition at 10 µM [2, 6] | IC50 [3, 7] | Change in Paw Volume ([1]; Table 6, 2 h post-carrageenan) | Change in Paw Volume ([1]; Table 6, 4 h post-carrageenan) | Change in Paw Volume ([1]; Table 6, 6 h post-carrageenan) | other results
1 | O=C1COc2ccc(cc2)C[C@@H](C(=O)N[C@@H](Cc2ccccc2)C(=O)O)NC(=O)[C@@H](CCc2ccccc2)NC(=O)[C@H](Cc2ccc(-c3ccccc3)cc2)NC(=O)[C@@H](Cc2cccs2)N1 [Compound 156] | 50 to 80% | > 80% | – | – | – | – | – | – | Change in Paw Volume ([1]; Table 7, 2 h post-carrageenan): 1.49 ± 0.24 mL; Change in Paw Volume ([1]; Table 7, 4 h post-carrageenan): 1.51 ± 0.12 mL; Change in Paw Volume ([1]; Table 7, 6 h post-carrageenan): 1.81 ± 0.16 mL; IC50 [3, 4]: < 10 µM
2 | O=C(O)[C@H](Cc1ccccc1)NC(=O)[C@@H]1Cc2ccc(cc2)NC(=O)[C@H](O)[C@@H](O)C(=O)N[C@H](Cc2cccs2)C(=O)N[C@@H](Cc2ccc(-c3ccccc3)cc2)C(=O)N[C@H](Cc2ccccc2)C(=O)N1 [Compound 174] | – | – | < 10% | 10 to 50% | < 10 µM | – | – | – | Change in Paw Volume ([1]; Table 7, 2 h post-carrageenan): 1.22 ± 0.08 mL; Change in Paw Volume ([1]; Table 7, 4 h post-carrageenan): 1.53 ± 0.13 mL; Change in Paw Volume ([1]; Table 7, 6 h post-carrageenan): 1.70 ± 0.22 mL
3 | O=C(O)[C@@H]1Cc2ccc(cc2)NC(=O)[C@H](O)[C@@H](O)C(=O)N[C@@H](Cc2cccs2)C(=O)N[C@@H](Cc2ccc(-c3ccccc3)cc2)C(=O)N[C@@H](Cc2ccccc2)C(=O)N1 [Compound 273] | – | – | 10 to 50% | < 10% | > 100 µM | – | – | – | Change in Paw Volume ([1]; Table 7, 2 h post-carrageenan): 1.13 ± 0.09 mL; Change in Paw Volume ([1]; Table 7, 4 h post-carrageenan): 1.52 ± 0.12 mL; Change in Paw Volume ([1]; Table 7, 6 h post-carrageenan): 1.59 ± 0.16 mL
4 | O=C(O)[C@@H]1Cc2ccc(cc2)NC(=O)[C@H](O)[C@@H](O)C(=O)N[C@H](Cc2cccs2)C(=O)N[C@@H](Cc2ccc(-c3ccncc3)cc2)C(=O)N[C@H](Cc2ccccc2)C(=O)N1 [Compound 330] | – | – | > 80% | 10 to 50% | < 10 µM | 1.20 ± 0.20 mL | 1.32 ± 0.17 mL | 1.33 ± 0.22 mL | –
5 | O=C(O)CCCNC(=O)[C@@H]1Cc2ccc(cc2)OCC(=O)N[C@@H](Cc2cccs2)C(=O)N[C@@H](Cc2ccc(-c3ccccc3)cc2)C(=O)N[C@@H](Cc2ccccc2)C(=O)N1 [Compound 342] | – | – | < 10% | 10 to 50% | < 10 µM | – | – | – | Change in Paw Volume ([1]; Table 4, 2 h post-carrageenan): 1.36 ± 0.10 mL; Change in Paw Volume ([1]; Table 4, 4 h post-carrageenan): 1.49 ± 0.20 mL; Change in Paw Volume ([1]; Table 4, 6 h post-carrageenan): 1.51 ± 0.15 mL
6 | CC(C)(C)Oc1ccc(C[C@@H]2NC(=O)[C@@H](Cc3ccc(-c4ccccc4)cc3)NC(=O)[C@H](Cc3cccs3)NC(=O)COc3ccc(cc3)C[C@@H](C(=O)O)NC2=O)cc1 [Compound 346] | > 80% | 50 to 80% | – | – | < 10 µM | 1.17 ± 0.06 mL | 1.20 ± 0.09 mL | 1.34 ± 0.09 mL | –
7 | O=C1COc2ccc(cc2)C[C@@H](C(=O)O)NC(=O)[C@H](CCc2ccccc2)NC(=O)[C@@H](Cc2ccc(-c3ccccc3)cc2)NC(=O)[C@H](Cc2cccs2)N1 [Compound 348] | – | – | 10 to 50% | 50 to 80% | < 10 µM | 1.13 ± 0.10 mL | 1.30 ± 0.20 mL | 1.32 ± 0.11 mL | –
8 | O=C1COc2ccc(cc2)C[C@@H](C(=O)O)NC(=O)[C@H](Cc2ccccc2)NC(=O)[C@H](Cc2ccc(-c3ccc(NC(=O)OCc4ccccc4)cc3)cc2)NC(=O)[C@H](Cc2cccs2)N1 [Compound 362] | < 10% | 10 to 50% | – | – | < 10 µM | – | – | – | Change in Paw Volume ([1]; Table 5, 2 h post-carrageenan): 1.17 ± 0.07 mL; Change in Paw Volume ([1]; Table 5, 4 h post-carrageenan): 1.22 ± 0.21 mL; Change in Paw Volume ([1]; Table 5, 6 h post-carrageenan): 1.15 ± 0.19 mL
9 | O=C1COc2ccc(cc2)C[C@@H](C(=O)N[C@@H](CCc2ccccc2)C(=O)O)NC(=O)[C@H](Cc2ccccc2)NC(=O)[C@@H](Cc2ccc(-c3ccccc3)cc2)NC(=O)[C@H](Cc2cccs2)N1 [Compound 393] | 10 to 50% | > 80% | – | – | – | 1.27 ± 0.07 mL | 1.28 ± 0.08 mL | 1.42 ± 0.12 mL | Change in Paw Volume ([1]; Table 4, 2 h post-carrageenan): 1.24 ± 0.18 mL; Change in Paw Volume ([1]; Table 4, 4 h post-carrageenan): 1.54 ± 0.25 mL; Change in Paw Volume ([1]; Table 4, 6 h post-carrageenan): 1.56 ± 0.17 mL; IC50 [3, 4]: < 10 µM
10 | O=C1CCC(=O)N[C@H](CCc2ccccc2)C(=O)N[C@@H](Cc2ccc(-c3ccncc3)cc2)C(=O)N[C@H](Cc2ccccc2)C(=O)N[C@H](C(=O)O)Cc2ccc(cc2)N1 [Compound 419] ([d(hPhe)][Phe(4-(4-pyridyl))][dF][Phe(4-NH2)]-OH; linker N-4 via Suc) | – | – | < 10% | < 10% | 10 to 30 µM | – | – | – | Change in Paw Volume ([1]; Table 8, 2 h post-carrageenan): 1.22 ± 0.21 mL; Change in Paw Volume ([1]; Table 8, 4 h post-carrageenan): 1.32 ± 0.18 mL; Change in Paw Volume ([1]; Table 8, 6 h post-carrageenan): 1.16 ± 0.16 mL
11 | O=C1CCC(=O)N[C@H](CCc2ccccc2)C(=O)N[C@@H](Cc2ccc(-c3ccncc3)cc2)C(=O)N[C@H](Cc2ccccc2)C(=O)N[C@H](C(=O)N[C@@H](Cc2ccccc2)C(=O)O)Cc2ccc(cc2)N1 [Compound 426] ([d(hPhe)][Phe(4-(4-pyridyl))][dF][Phe(4-NH2)]F-OH; linker N-4 via Suc) | – | – | 10 to 50% | 10 to 50% | < 10 µM | – | – | – | Change in Paw Volume ([1]; Table 5, 2 h post-carrageenan): 0.90 ± 0.15 mL; Change in Paw Volume ([1]; Table 5, 4 h post-carrageenan): 1.11 ± 0.18 mL; Change in Paw Volume ([1]; Table 5, 6 h post-carrageenan): 1.11 ± 0.23 mL
12 | O=C1COc2ccc(cc2)C[C@@H](C(=O)O)NC(=O)[C@H](Cc2ccc(O)cc2)NC(=O)[C@H](Cc2ccc(-c3ccccc3)cc2)NC(=O)[C@H](Cc2cccs2)N1 [Compound 428] | < 10% | < 10% | – | – | < 10 µM | – | – | – | Change in Paw Volume ([1]; Table 8, 2 h post-carrageenan): 1.27 ± 0.15 mL; Change in Paw Volume ([1]; Table 8, 4 h post-carrageenan): 1.43 ± 0.22 mL; Change in Paw Volume ([1]; Table 8, 6 h post-carrageenan): 1.39 ± 0.22 mL
13 | O=C(O)[C@H](Cc1ccccc1)NC(=O)[C@@H]1Cc2ccc(cc2)NC(=O)[C@H](O)[C@@H](O)C(=O)N[C@H](Cc2cccs2)C(=O)N[C@@H](Cc2ccc(-c3ccncc3)cc2)C(=O)N[C@H](Cc2ccccc2)C(=O)N1 [Compound 442] | – | – | 10 to 50% | 10 to 50% | < 10 µM | – | – | – | Change in Paw Volume ([1]; Table 5, 2 h post-carrageenan): 0.86 ± 0.15 mL; Change in Paw Volume ([1]; Table 5, 4 h post-carrageenan): 1.08 ± 0.16 mL; Change in Paw Volume ([1]; Table 5, 6 h post-carrageenan): 1.01 ± 0.14 mL
